Data reported in US20210087217A1, “NUCLEOTIDE HEMI-SULFATE SALT FOR THE TREATMENT OF HEPATITIS C VIRUS” (Atea Pharmaceuticals, Inc., priority 2017, published 2021).
Entries after “also recorded” stand apart in the source; their conditions may differ. Where a name gives a salt, the structure may show the parent alone.

How the values were obtained:
[1] = Accelerated stability (40 ± 2° C./75 ± 5% RH) of Compound 2; type: physicochemical
Protocol: (§1) Three conditions were tested: accelerated stability (40 2° C./75±5% RH) over a 6-month time period, ambient stability (25±2° C./60±5% RH) over a 9-month period, and stability under refrigerator conditions (5 3° C.) over a 9-month time period. The results for accelerated stability, ambient stability, and refrigerator conditions are shown in Table 23, Table 24, and Table 25, respectively.
After six months, the total related substance 1 impurities was only 0.08% and there was no detection of related substance 2 and isomers.

[2] = Ambient stability (25 ± 2° C./60 ± 5% RH) of Compound 2; type: physicochemical
Protocol: as §1
After 9 months, the percentage of water in the sample was only 0.20% and the total related substance 1 impurities was only 0.02%.

[3] = Heart and liver tissue levels of active triphosphate 4 hours after oral Compound 2, dogs; type: in vivo, dog; conditions: 4 hours after oral dose of Compound 2
Protocol: High levels of the active TP were measured in the liver of all species tested.

[4] = Single ascending dose study of Compound 2 in healthy volunteers (Part A): safety, tolerability, pharmacokinetic; type: in vivo, human; conditions: healthy subjects
Protocol: Compound 2 was tested in a single ascending dose (SAD) study to measure its safety, tolerability, and pharmacokinetic in healthy subjects (Part A). Part A was a randomized, double-blind, placebo-controlled SAD study. Healthy subjects in Part A received a single dose of Compound 2 or placebo in the fasting state. Subjects were confined to the clinic from Day −1 to Day 6.
Dosing in each cohort was staggered such that 2 subjects (1 active:1 placebo) were evaluated for 48 hours after dosing before the remainder of the cohort was dosed. Each cohort received Compound 2 in ascending order. Dosing of sequential cohorts occurred based on review of available safety data (through Day 5) and plasma pharmacokinetic data (through 24 h) of the prior cohort.
As pharmacokinetic and safety data emerged from prior cohorts, doses evaluated in Cohorts 3a-4a were adjusted by increments no more than 100 mg.
Healthy volunteers in the Part A portion of the study were male and female subjects between the ages of 18 and 65. Active and placebo recipients were pooled within each Part A cohort to preserve the study blind.
(§2) Pharmacokinetic of Compound 1 and nucleoside metabolite 1-7 were measured following the single dose of Compound 2. […] Values are reported as mean±SD, except or Tmax where median (range) is reported.

[5] = Single ascending dose study of Compound 2 in GT1-HCV infected patients (Part B): safety, tolerability, pharmacokinetic; type: in vivo, human
Protocol: Subjects in Part B received a single dose of Compound 2 in the fasting state. Patients were confined to the clinic from Day −1 to Day 6.
Part B was initiated after the safety (through Day 5) and plasma pharmacokinetic (through 24 h) data review from Cohort 3a in Part A. Available safety data (through Day 5) and pharmacokinetic data (through 24 h) was reviewed for the first cohort in Part B (Cohort 1b) before enrolling subsequent Part B cohorts. Subsequent Part B cohorts were only dosed following review of available safety and pharmacokinetic data from the respective doses in Part A as well as available safety (through Day 5) from the prior Part B cohorts.
Patients infected with HCV were treatment-naïve, non-cirrhotic GT1-infected subjects with a viral load of ≥5 log10 IU/mL.
as §2
Plasma exposure of Compound 1 was dose-related while exposure of metabolite 1-7 was dose-proportional.

[6] = 25° C./60% RH, over nine months
[7] = 25 ± 2° C./60 ± 5% RH, 1st month
[8] = 25 ± 2° C./60 ± 5% RH, 3rd month
[9] = 25 ± 2° C./60 ± 5% RH, 6th month
[10] = 25 ± 2° C./60 ± 5% RH, 9th month
[11] = Part B, GT1-HCV infected patients

Question: With `CNc1nc(N)nc2c1ncn2[C@@H]1O[C@H](CO[P@@](=O)(N[C@@H](C)C(=O)OC(C)C)Oc2ccccc2)[C@@H](O)[C@@]1(C)F` [Compound 2, hemi-sulfate salt of isopropyl((S)-(((2R,3R,4R,5R)-5-(2-amino-6-(methylamino)-9H-purin-9-yl)-4-fluoro-3-hydroxy-4-methyltetrahydrofuran-2-yl)methoxy)(phenoxy)phosphoryl)-L-alaninate] as the compound, how does the Appearance ([1]; 40° C./75% RH, 0 month) read?
Answer: The Appearance was “White”.

Question: And the Assay ([1]; 40° C./75% RH, 0 month)?
Answer: The Assay was 98.8%.

Question: And the IR ([1]; 40° C./75% RH, 0 month)?
Answer: The IR was “correspond”.

Question: What about the “Related Substance 1: Any other single impurity” value ([1]; 40° C./75% RH, 0 month) of the same compound?
Answer: Its value is 0.01%.

Question: What about the “Related Substance 1: Total Impurities” value ([1]; 40° C./75% RH, 0 month) of the same compound?
Answer: The value was 0.01%.

Question: And the Water ([1]; 40° C./75% RH, 0 month)?
Answer: The Water was 0.45%.

Question: And the Appearance ([1]; 40° C./75% RH, 1st month)?
Answer: Its Appearance is “White”.

Question: What about the Assay ([1]; 40° C./75% RH, 1st month) of the same compound?
Answer: The Assay was 101.5%.

Question: What about the “Related Substance 1: Any other single impurity” value ([1]; 40° C./75% RH, 1st month) of the same compound?
Answer: The value was 0.02%.

Question: What about the “Related Substance 1: Total Impurities” value ([1]; 40° C./75% RH, 1st month) of the same compound?
Answer: Its value is 0.02%.

Question: What about the Water ([1]; 40° C./75% RH, 1st month) of the same compound?
Answer: The Water was 0.21%.

Question: What about the Appearance ([1]; 40° C./75% RH, 3rd month) of the same compound?
Answer: The Appearance was “White”.

Question: What about the Assay ([1]; 40° C./75% RH, 3rd month) of the same compound?
Answer: Its Assay is 99.6%.

Question: What about the IR ([1]; 40° C./75% RH, 3rd month) of the same compound?
Answer: The IR was “correspond”.

Question: And the “Related Substance 1: Any other single impurity” value ([1]; 40° C./75% RH, 3rd month)?
Answer: The value was 0.01%.

Question: What about the “Related Substance 1: Total Impurities” value ([1]; 40° C./75% RH, 3rd month) of the same compound?
Answer: The value was 0.02%.

Question: What about the Water ([1]; 40° C./75% RH, 3rd month) of the same compound?
Answer: Its Water is 0.36%.

Question: What about the Appearance ([1]; 40° C./75% RH, 6th month) of the same compound?
Answer: The Appearance was “White”.

Question: What about the Assay ([1]; 40° C./75% RH, 6th month) of the same compound?
Answer: Its Assay is 99.5%.

Question: What about the IR ([1]; 40° C./75% RH, 6th month) of the same compound?
Answer: Its IR is “correspond”.

Question: And the “Related Substance 1: Any other single impurity” value ([1]; 40° C./75% RH, 6th month)?
Answer: The value was 0.05%.

Question: And the “Related Substance 1: Impurity F” value ([1]; 40° C./75% RH, 6th month)?
Answer: Its value is 0.01%.

Question: What about the “Related Substance 1: Total Impurities” value ([1]; 40° C./75% RH, 6th month) of the same compound?
Answer: The value was 0.08%.

Question: What about the Water ([1]; 40° C./75% RH, 6th month) of the same compound?
Answer: Its Water is 0.41%.

Question: What about the “Stability” value ([1]; accelerated stability conditions (40° C./75% RH), 6 months) of the same compound?
Answer: The value was “remains a white solid”.

Question: What about the Percentage of water ([2]; 25° C./60% RH, after 9 months) of the same compound?
Answer: Its Percentage of water is 0.20%.

Question: What about the “Total related substance 1 impurities” value ([2]; 25° C./60% RH, after 9 months) of the same compound?
Answer: The value was 0.02%.

Question: What about the “Related substance 2 and any isomers” value ([2]; 25° C./60% RH, nine months) of the same compound?
Answer: The value was “not detected”.

Question: And the Appearance [2, 6]?
Answer: Its Appearance is “white solid”.

Question: And the IR [2, 6]?
Answer: Its IR is “corresponded with the reference sample”.

Question: What about the Appearance ([2]; 25 ± 2° C./60 ± 5% RH, 0 month) of the same compound?
Answer: Its Appearance is “White”.

Question: What about the Assay ([2]; 25 ± 2° C./60 ± 5% RH, 0 month) of the same compound?
Answer: The Assay was 98.8%.

Question: What about the IR ([2]; 25 ± 2° C./60 ± 5% RH, 0 month) of the same compound?
Answer: The IR was “correspond”.

Question: What about the “Related Substance 1 Any other single impurity” value ([2]; 25 ± 2° C./60 ± 5% RH, 0 month) of the same compound?
Answer: Its value is 0.01%.

Question: What about the “Related Substance 1 Total Impurities” value ([2]; 25 ± 2° C./60 ± 5% RH, 0 month) of the same compound?
Answer: Its value is 0.01%.

Question: And the Water ([2]; 25 ± 2° C./60 ± 5% RH, 0 month)?
Answer: The Water was 0.45%.

Question: What about the Appearance [2, 7] of the same compound?
Answer: The Appearance was “White”.

Question: And the Assay [2, 7]?
Answer: Its Assay is 101.1%.

Question: And the “Related Substance 1 Any other single impurity” value [2, 7]?
Answer: The value was 0.01%.

Question: What about the “Related Substance 1 Total Impurities” value [2, 7] of the same compound?
Answer: The value was 0.02%.

Question: What about the Water [2, 7] of the same compound?
Answer: Its Water is 0.19%.

Question: What about the Appearance [2, 8] of the same compound?
Answer: Its Appearance is “White”.

Question: What about the Assay [2, 8] of the same compound?
Answer: The Assay was 99.6%.

Question: What about the IR [2, 8] of the same compound?
Answer: Its IR is “correspond”.

Question: And the “Related Substance 1 Any other single impurity” value [2, 8]?
Answer: Its value is 0.03%.

Question: What about the “Related Substance 1 Impurity B” value [2, 8] of the same compound?
Answer: Its value is 0.03%.

Question: What about the “Related Substance 1 Impurity F” value [2, 8] of the same compound?
Answer: Its value is 0.02%.

Question: What about the “Related Substance 1 Total Impurities” value [2, 8] of the same compound?
Answer: Its value is 0.11%.

Question: What about the Water [2, 8] of the same compound?
Answer: The Water was 0.29%.

Question: What about the Appearance [2, 9] of the same compound?
Answer: The Appearance was “White solid”.

Question: What about the Assay [2, 9] of the same compound?
Answer: The Assay was 99.7%.

Question: What about the IR [2, 9] of the same compound?
Answer: Its IR is “correspond”.

Question: And the “Related Substance 1 Any other single impurity” value [2, 9]?
Answer: Its value is 0.02%.

Question: What about the “Related Substance 1 Impurity F” value [2, 9] of the same compound?
Answer: The value was 0.01%.

Question: What about the “Related Substance 1 Total Impurities” value [2, 9] of the same compound?
Answer: Its value is 0.05%.

Question: What about the Water [2, 9] of the same compound?
Answer: Its Water is 0.46%.

Question: And the Appearance [2, 10]?
Answer: Its Appearance is “Off-white”.

Question: What about the Assay [2, 10] of the same compound?
Answer: Its Assay is 100.9%.

Question: And the IR [2, 10]?
Answer: Its IR is “correspond”.

Question: And the “Related Substance 1 Any other single impurity” value [2, 10]?
Answer: Its value is 0.02%.

Question: And the “Related Substance 1 Total Impurities” value [2, 10]?
Answer: Its value is 0.02%.

Question: What about the Water [2, 10] of the same compound?
Answer: The Water was 0.20%.

Question: And the “Stability” value ([2]; ambient conditions (25° C./60% RH), 9 months)?
Answer: The value was “very stable; also recorded: stable”.

Question: And the “Active TP (metabolite 1-6) level in heart” value [3]?
Answer: The value was “Relatively low levels”.

Question: And the “Active TP (metabolite 1-6) level in liver” value [3]?
Answer: The value was “High levels”.

Question: What about the “Intensity of adverse effects” value ([4]; Part A) of the same compound?
Answer: The value was “mild to moderate”.

Question: What about the Serious adverse events ([4]; Part A) of the same compound?
Answer: The Serious adverse events was “No serious adverse events”.

Question: What about the “Tolerability” value ([4]; single oral dose) of the same compound?
Answer: The value was “well tolerated”.

Question: And the “Intensity of adverse effects” value [5, 11]?
Answer: The value was “mild to moderate”.

Question: What about the Serious adverse events [5, 11] of the same compound?
Answer: The Serious adverse events was “No serious adverse events”.

Question: What about the “Time within which Compound 1 was absorbed and metabolized” value ([5]; all cohorts from Part B, single dose of Compound 2) of the same compound?
Answer: The value was no more than 8 h.

Question: And the “Tolerability” value ([5]; hepatitis C infected patients, single oral dose)?
Answer: The value was “well tolerated”.

Question: And the “Plasma exposure of Compound 1 versus dose” value ([5]; single dose of Compound 2)?
Answer: The value was “dose-related”.

Question: And the “Plasma exposure of metabolite 1-7 versus dose” value ([5]; single dose of Compound 2)?
Answer: Its value is “mostly dose-proportional”.
